Measurements from publication PMC5587909, “Inhibition of the ATP Synthase Eliminates the Intrinsic Resistance of Staphylococcus aureus towards Polymyxins” (mBio, 2017).
In brackets after ≈: the same amount, converted by molar mass. Bridge positions count the residues as written; N and C are the ends. Square brackets hold non-standard residues; d marks the D form. Peptide text beside a SMILES is read from it. * marks the point of attachment. X1 = CC[C@H](C)CCCCC(=O)*; Dab = NCC[C@H](N)C(=O)O

Columns and labels:
Type in all cases: cell-based, Staphylococcus aureus
[1] = tested on: S. aureus JE2 atpG transposon mutant (SAUSA300_2059); settings: Etest on TSA
From the text: (§1) Staphylococcus aureus is intrinsically resistant to the clinically approved cationic antimicrobial peptides polymyxin B (PMB) and colistin ([1], [16]). […] The MIC for PMB was subsequently determined using Etests for the identified mutants. Nineteen mutants were confirmed to be at least 2-fold more susceptible than the WT (Table 1). As expected, we identified transposon insertions in graS, graR, vraF, and vraG, corroborating previous work on these determinants in S. aureus in relation to increased PMB susceptibility ([12]).
(§2) The strains used in this study include S. aureus strain JE2 (plasmid-cured derivative of USA300 LAC) and all derivative strains within the Nebraska Transposon Mutant Library (NTML), consisting of 1,920 unique transposon mutants with inactivation of nonessential genes ([15]). The bursa aurealis transposon used to create the collection contains the resistance cassette ermB, which confers resistance to erythromycin ([15]). Additionally we used S. aureus SA113 and two derivatives, SA113 ΔdltA ([9]) and SA113 ΔmprF ([10]). All bacterial strains were cultured at 37°C in tryptic soy broth (TSB) or on tryptic soy agar (TSA), with antimicrobial agents added as indicated. Two methods have been employed to determine MICs to various antimicrobial agents. (i) A 2-fold broth microdilution assay in TSB (100 µl) with an initial inoculum of approximately 5 × 10^5 cells/ml was employed to determine the MICs of polymyxin B sulfate (Sigma), gallidermin (Santa Cruz Biotechnology), nisin (Sigma), bacitracin (Sigma), and LL-37 (Isca Biochemicals). (ii) An Etest (BioMérieux) performed on TSA plates was employed to determine MICs for polymyxin B, colistin, ciprofloxacin, oxacillin, linezolid, gentamicin, vancomycin, and daptomycin. The MIC was determined upon incubation at 37°C for 22 h. When indicated, the Etest (BioMérieux) was performed on Mueller-Hinton agar plates (cation adjusted for calcium and magnesium).

[2] = tested on: S. aureus JE2 graS transposon mutant (SAUSA300_0646); settings: Etest on TSA
From the text: as §1, §2

[3] = tested on: S. aureus JE2 transposon mutant SAUSA300_1802 (hypothetical protein); settings: Etest on TSA, 37°C, 22 h
From the text: as §1, §2

S. aureus JE2 (WT) [4] = settings: Etest on cation-adjusted Mueller-Hinton agar, 37°C, 22 h
Protocol: (§3) It has been reported that growth medium composition can affect polymyxin MIC ([23]): therefore, we also tested polymyxin B MICs of the WT and atpA, graR, vraG, and vraF mutants by employing the Etest on cation-adjusted Mueller-Hinton (MH) agar. […] Polymyxin B breakpoints for Pseudomonas aeruginosa are susceptible at a MIC of ≤2 μg/ml, intermediate at a MIC of 4 μg/ml, and resistant at a MIC of ≥8 μg/ml, whereas for Acinetobacter spp., a MIC of ≥4 μg/ml is considered resistant.
as §2

[5] = tested on: S. aureus JE2 atpA mutant; settings: Etest on cation-adjusted Mueller-Hinton agar, 37°C, 22 h
Protocol: as §3, §2

[6] = tested on: S. aureus JE2 graR mutant; settings: Etest on cation-adjusted Mueller-Hinton agar, 37°C, 22 h
Protocol: as §3, §2

[7] = tested on: S. aureus JE2 vraF mutant; settings: Etest on cation-adjusted Mueller-Hinton agar, 37°C, 22 h
Protocol: as §3, §2

[8] = tested on: S. aureus JE2 vraG mutant; settings: Etest on cation-adjusted Mueller-Hinton agar, 37°C, 22 h
Protocol: as §3, §2

[9] = tested on: S. aureus SA113 (wild type); settings: MIC method not given, 37°C, 22 h
From the text: (§4) Lysinylation of phosphatidylglycerols therefore seems to mediate selective protection against certain cationic antimicrobial peptides.
as §2, with “The MIC was determined upon incubation at 37°C for 22 h. When indicated, the Etest (BioMérieux) was performed on Mueller-Hinton agar plates (cation adjusted for calcium and magnesium).” left out

[10] = tested on: S. aureus SA113 ΔmprF mutant; settings: MIC method not given, 37°C, 22 h
From the text: as §4
as §2, with “The MIC was determined upon incubation at 37°C for 22 h. When indicated, the Etest (BioMérieux) was performed on Mueller-Hinton agar plates (cation adjusted for calcium and magnesium).” left out

S. aureus JE2 (WT) [11] = test: Kill curve experiment, polymyxin B with or without oligomycin A; settings: WT JE2 in TSB; PMB alone at 0.25× MIC of WT; 4 h
From the text: The ATP synthase is a well-described protein complex, and multiple inhibitors have been identified that interfere with its function—e.g., the macrolide oligomycin A ([32]). […] The combinatory efficacy of PMB and oligomycin A is similar to the observed killing efficacy of PMB against the atpA mutant.
FIG 4 Improved killing efficacy of PMB upon inhibition of the ATP synthase. […] The data represent the average from three measurements, with error bars showing 95% confidence intervals.
From overnight cultures of S. aureus JE2 and the derivative atpA mutant, 100 μl was diluted into 900 μl fresh TSB medium in a Falcon tube and grown for 1 h for the cells to reach the early exponential phase. After 1 h, the cultures were diluted into 10 ml fresh TSB medium in 100-ml Erlenmeyer flasks, reaching an initial cell count of approximately 10^6 cells/ml. Oligomycin A (Sigma) was added to flasks as indicated at a concentration of 8 μg/ml. […] CFU were determined on TSA plates before addition of oligomycin A (time zero [T0]), before addition of polymyxin B (time 30 min [T30]), and every hour for the following 4 h.

CC[C@H](C)CCCCC(=O)N[C@@H](CCN)C(=O)N[C@H](C(=O)N[C@@H](CCN)C(=O)N[C@H]1CCNC(=O)[C@H]([C@@H](C)O)NC(=O)[C@H](CCN)NC(=O)[C@H](CCN)NC(=O)[C@H](CC(C)C)NC(=O)[C@@H](Cc2ccccc2)NC(=O)[C@H](CCN)NC1=O)[C@@H](C)O [Polymyxin B, polymyxin B] (X1-[Dab]T[Dab][Dab][Dab][dF]L[Dab][Dab]T; lactam 4-C (inferred); N-terminus assumed)
MIC ([1]; 37°C, 22 h, atpG mutant): 16 µg/mL (≈ 13.3 µM)
fold reduction in MIC relative to WT ([1]; atpG mutant vs WT JE2): 8 fold
MIC ([2]; 37°C, 22 h, graS mutant): 24 µg/mL (≈ 19.9 µM)
fold reduction in MIC relative to WT ([2]; graS mutant vs WT JE2): 8 fold
MIC [3]: 64 µg/mL (≈ 53.2 µM)
MIC (S. aureus JE2 (WT) [4]): 8 to 16 µg/mL
MIC [5]: 2 to 4 µg/mL
MIC [6]: 1 to 2 µg/mL
MIC [7]: 1.5 to 2 µg/mL
MIC [8]: 1.5 to 2 µg/mL
MIC [9]: 512 µg/mL (≈ 425 µM)
MIC [10]: 384 µg/mL (≈ 319 µM)
killing efficacy (CFU over time) (S. aureus JE2 (WT) [11]): continued growth
